Assay results taken from article PMC8924238, “Mapping the sequence specificity of heterotypic amyloid interactions enables the identification of aggregation modifiers” (Nature Communications, 2022).

Test system: HEK293 Tau^RD-P301S-CFP/YFP expressing biosensor cells
Assay: FRET cellular transfection assay with protein constructs and tau seeds
Format: cell-based
Settings: for rise of induced tau aggregation in transfection-positive cells: compared to non-expressing and non-transfected cells, high seeding concentrations; for susceptibility to tau seeding at low seed concentrations: concentration-dependent quantification; for number of inclusions formed per cell: higher concentrations of tau seeds, compared to the controls
Procedure: HEK293 Tau^RD-P301S-CFP/YFP expressing biosensor cells[109] were purchased from ATCC and cultured in DMEM medium, supplemented with 10% FBS at 37 °C, and a 5% CO2 atmosphere. Gene constructs (Supplementary Methods) were generated and onboarded to a pTwist CMV expression vector by coupling double-tagged (N-terminal HA and C-terminal FLAG recognition sites) genes of interest to an mKO2 fluorescence reporter, separated by an IRES site to enable independent co-expression (Twist Biosciences). Due to restrictions imposed by the construct synthesis, for proteins longer than 500 residues we designed shorter domain-constructs containing the homologous sequences (Supplementary Table 2). Biosensor cells were plated in poly-L-lysine coated 96-well plates (PerkinElmer) at a density of 20000 cells/well. DNA transfection (100 ng) and tau seeds transfection was performed 6 h and 48 h later, respectively, using Lipofectamine 3000 according to the manufacturer guidelines. For seed transfections specifically, a volume of 4.8 μL of the seed sample, mixed with 0.2 μL of Reagent 3000, was added to a mixture of 0.3 μL of Lipofectamine 3000 with 4.7 μL of Opti-MEM medium. Cells were fixed with 4% formaldehyde 24 h after seeding. Fixed cells were stained with DAPI (Thermofisher, D1306) following the manufacturer protocol. For immunofluorescence staining, primary antibody staining at 1:1000 dilution was performed in 1% BSA with an HA-tag (C29F4) Rabbit mAb (Cell Signalling, #3724), followed by secondary staining with an Alexa Fluor 647 goat anti-rabbit antibody (ThermoFisher, A-21245) at 1:1000 dilution in 1% BSA for 1 h. Three individual plate preparations were performed for each construct gradient as independent experiments (n = 3). High-content screening was performed at the VIB Screening Core/C-BIOS, using an Opera Phenix HCS (PerkinElmer) equipped with proper filter channels to track tau aggregation through FRET (Ex:405, Em:550), construct colocalization through HA staining (Ex:647, Em:667) and DAPI staining (Ex:405 Em:430). Image storage and segmentation analysis was performed using the Columbus Plus digital platform (PerkinElmer). Quantification of colocalization was performed using Coloc2 in ImageJ.

Molecule	rise of induced tau aggregation in transfection-positive cells	susceptibility to tau seeding at low seed concentrations	number of inclusions formed per cell
DOCK3: dedicator of cytokinesis, transiently expressed construct	30%		
IDE: insulin degrading enzyme, transiently expressed construct with homology to PHF6	30%	vulnerable to tau seeding even at picomolar concentrations	doubling or higher effect
TRA2B: Transformer-2 homolog beta, transiently expressed construct (protein, UniProt P62995 2-288, looked up) Transformer-2 protein homolog …: SDSGEQNYGERESRSASRSGSAHGSGKSARHTPARSRSKEDSRRSRSKSRSRSESRSRSRRSSRRHYTRSRSRSRSHRRSRSRSYSRDYRRRHSHSHSPMSTRRRHVGNRANPDPNCCLGVFGLSLYTTERDLREVFSKYGPIADVSIVYDQQSRRSRGFAFVYFENVDDAKEAKERANGMELDGRRIRVDFSITKRPHTPTPGIYMGRPTYGSSRRRDYYDRGYDRGYDDRDYYSRSYRGGGGGGGGWRAAQDRDQIYRRRSPSPYYSRGGYRSRSRSRSYSPRRY	30%	vulnerable to tau seeding even at picomolar concentrations	doubling or higher effect
SNTG1: Synaptotagmin-1 (SNTG1) as worded, transiently expressed construct (protein, UniProt Q9NSN8 1-517, looked up) Gamma-1-syntrophin: MDFRTACEETKTGICLLQDGNQEPFKVRLHLAKDILMIQEQDVICVSGEPFYSGERTVTIRRQTVGGFGLSIKGGAEHNIPVVVSKISKEQRAELSGLLFIGDAILQINGINVRKCRHEEVVQVLRNAGEEVTLTVSFLKRAPAFLKLPLNEDCACAPSDQSSGTSSPLCDSGLHLNYHPNNTDTLSCSSWPTSPGLRWEKRWCDLRLIPLLHSRFSQYVPGTDLSRQNAFQVIAVDGVCTGIIQCLSAEDCVDWLQAIATNISNLTKHNIKKINRNFPVNQQIVYMGWCEAREQDPLQDRVYSPTFLALRGSCLYKFLAPPVTTWDWTRAEKTFSVYEIMCKILKDSDLLDRRKQCFTVQSESGEDLYFSVELESDLAQWERAFQTATFLEVERIQCKTYACVLESHLMGLTIDFSTGFICFDAATKAVLWRYKFSQLKGSSDDGKSKIKFLFQNPDTKQIEAKELEFSNLFAVLHCIHSFFAAKVACLDPLFLGNQATASTAASSATTSKAKYTT			doubling or higher effect
